Assay: gradient 5% acetonitrile 3 min, to 50% in 2 min, to 85% in 15 min, held 3 min, 100 µL/min
Conditions: column: Zorbax Extend-C18 2.1 x 50 mm; eluents: water / acetonitrile, 0.1% formic acid
In short: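 Data were gathered over 3 months by HPLC coupled to a quadrupole time-of-flight mass spectrometer, operated in positive and negative ionization mode. Mixtures of ~100 pure standards ran on a Zorbax Extend-C18 column (2.1 × 50 mm, 1.8 μm) at 100 μL/min, with water and acetonitrile each containing 0.1% formic acid and dead and dwell volumes of 40 μL and 900 μL. Retention time was read from adduct peaks picked by computer and checked manually.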

Structure (SMILES)	RP-LC retention time [s]
Cc1ccc2[nH]cc(CCN3CC(C(=O)NCc4ccc5c(c4)OCO5)CC3=O)c2c1 (stereo not given)	770
CC(=O)NCC(=O)N1CCCn2cc(-c3ccc4c(c3)OCO4)nc21	487
O=C(CN1CCN(Cc2ccc(F)cc2Cl)C1=O)N1CCN(c2ccc(F)cc2)CC1	908
O=C(C1CC1)N1CCc2sc(S(=O)(=O)NCc3ccc4c(c3)OCO4)cc2C1	812
Cc1ccc(Nc2c(-c3ccc(C)cc3)nc3ccc(C)cn23)cc1	797
Cc1nn(CC(=O)NCc2ccc(F)cc2)c(=O)c2nc(-c3ccccc3)sc12	872
Cc1cc2c(cc1S(=O)(=O)N1CCCC1C(=O)NC1CCCCCCC1)OCC(=O)N2 (stereo not given)	834
CCC(=O)NCc1nc2c(n1C)CN(S(=O)(=O)c1cccc(C(F)(F)F)c1)CC2	591
CCn1nc(C)c2c(-c3ccccc3)cc(OC(C)C(=O)Nc3ccc4c(c3)OCO4)nc21 (stereo not given)	1030
Cc1noc(C)c1CCC(=O)N(C)C1CCc2nn(CC3CC3)c(=O)n2CC1 (stereo not given)	644
CC(C)(C)c1csc(-c2csc(S(=O)(=O)Nc3ccc(Cl)cc3)c2)n1	1300
COc1ccc(NC(=O)c2noc3c2CC(C)CC3)cc1OC (stereo not given)	895
O=C(c1ccc(F)cc1)N1CCN(c2cc(-c3cccs3)[nH]n2)CC1	764
Cc1cc(C2CCCN2C(=O)Nc2cc(Cl)ccc2C)on1 (stereo not given)	794
COCCNC(=O)C1CN(S(=O)(=O)c2ccccc2)CC12CCCCC2 (stereo not given)	811
Cc1cccc(S(=O)(=O)N2CCN(c3nc4ccncc4n(CC(C)C)c3=O)CC2)c1	778
CCOc1ccc(NC(=O)c2oc3ccc(F)cc3c2C)c2cccnc12	710
Cc1ccc(C2CC(=O)c3cnc(N4CCN(c5ccccc5)CC4)nc3C2)cc1 (stereo not given)	1340
COc1ccc(-n2c(=O)n(C)c(=O)c3cc(C(=O)Nc4ccccc4)cnc32)cc1	862
CC1(C(=O)NCc2ccc(F)cc2)CCCN(C(=O)NCCc2ccccc2)C1 (stereo not given)	857
Cc1ccc(CN2CCN(C3CCN(C(=O)Nc4ccccc4C(F)(F)F)CC3)C(=O)C2=O)cc1	810
CC(=O)Nc1nnc(SCc2cc(=O)c(OC(=O)c3ccccc3Cl)co2)s1	699
Cn1cnc2c1CN(C(=O)c1ccc(Br)o1)CC2	563

Structure (SMILES)	RP-LC retention time [s]
O=C(c1c[nH]c2ccccc12)N1CCN(c2cc(-c3cccs3)[nH]n2)CC1	731
O=C(Cc1cn2cc(F)ccc2n1)Nc1ccc(F)cc1	594
Cc1ccc(-c2nccn3cc(C(=O)O)nc23)cc1	696
COC1CCC12CCN(C(=O)c1ccc(Cc3c(C)noc3C)o1)CC2 (stereo not given)	800
CCCn1cc(CNC(=O)CN2CCN(Cc3ccc(F)cc3)C2=O)c(C)n1	674
CCOC(=O)c1sc2nc(C)cc(C)c2c1NC(=O)CCS(=O)(=O)c1ccccc1	759
CCCNC(=O)C12CCC(C)(C(=O)C1)C2(C)C (stereo not given)	657
COC(=O)C1=C(CN2CCOCC2)NC(=O)NC1c1ccc(OC)c(OC)c1 (stereo not given)	571
CCOC(=O)C1CCCN(c2c(N3CCC(Cc4ccccc4)CC3)c(=O)c2=O)C1 (stereo not given)	986
O=c1cc(CO)oc(C(Nc2ccccn2)c2cccc(F)c2)c1O (stereo not given)	542
CCOCCCNC(=O)c1cc2sc(C)cc2n1C	861
Nc1cccc(-c2nc3ccccc3[nH]2)c1	532
CC(C)(C)CC(C)(C)NCC(O)COC(C)(C)C (stereo not given)	588
CCN(CC)C(=O)c1ccc2c(c1)N(CC(=O)N1CCN(c3ccccn3)CC1)C(=O)CS2	598
COc1ccc(Cn2nnc(C(=O)N3CCSCC3)c2-n2cccc2)cc1	884
COc1cccc(-n2c(N3CCC(C(=O)NCC(C)C)CC3)nc3ccsc3c2=O)c1	773
CN1C(=O)C2(CCN(C(=O)Nc3ccc4c(c3)OCO4)C2)c2ccccc21 (stereo not given)	752
O=C(NCc1ccc(Br)cc1)c1ccc(-c2cncnc2)nc1	765
O=C(c1ccccc1)N1CCC(n2nc(-c3ccsc3)ccc2=O)CC1	780
CC1CCCN(C(=O)Cn2nc(-c3nc(-c4ccc5c(c4)OCO5)no3)ccc2=O)C1 (stereo not given)	765
Cc1cc(C(=O)N2CC(c3nc(Cc4ccccc4)no3)C2)c(C)o1	836
COc1cc(NC(C)=O)c2ncccc2c1NC(C)=O	631
